Among the data in ChEMBL document CHEMBL5291721, “A preclinical secondary pharmacology resource illuminates target-adverse drug reaction associations of marketed drugs” (Nat Commun, 2023) are AC50 values, retold here.

In one experiment the target is T1, Progesterone receptor (Homo sapiens, UniProt P06401).
T1 sequence (P06401 whole entry): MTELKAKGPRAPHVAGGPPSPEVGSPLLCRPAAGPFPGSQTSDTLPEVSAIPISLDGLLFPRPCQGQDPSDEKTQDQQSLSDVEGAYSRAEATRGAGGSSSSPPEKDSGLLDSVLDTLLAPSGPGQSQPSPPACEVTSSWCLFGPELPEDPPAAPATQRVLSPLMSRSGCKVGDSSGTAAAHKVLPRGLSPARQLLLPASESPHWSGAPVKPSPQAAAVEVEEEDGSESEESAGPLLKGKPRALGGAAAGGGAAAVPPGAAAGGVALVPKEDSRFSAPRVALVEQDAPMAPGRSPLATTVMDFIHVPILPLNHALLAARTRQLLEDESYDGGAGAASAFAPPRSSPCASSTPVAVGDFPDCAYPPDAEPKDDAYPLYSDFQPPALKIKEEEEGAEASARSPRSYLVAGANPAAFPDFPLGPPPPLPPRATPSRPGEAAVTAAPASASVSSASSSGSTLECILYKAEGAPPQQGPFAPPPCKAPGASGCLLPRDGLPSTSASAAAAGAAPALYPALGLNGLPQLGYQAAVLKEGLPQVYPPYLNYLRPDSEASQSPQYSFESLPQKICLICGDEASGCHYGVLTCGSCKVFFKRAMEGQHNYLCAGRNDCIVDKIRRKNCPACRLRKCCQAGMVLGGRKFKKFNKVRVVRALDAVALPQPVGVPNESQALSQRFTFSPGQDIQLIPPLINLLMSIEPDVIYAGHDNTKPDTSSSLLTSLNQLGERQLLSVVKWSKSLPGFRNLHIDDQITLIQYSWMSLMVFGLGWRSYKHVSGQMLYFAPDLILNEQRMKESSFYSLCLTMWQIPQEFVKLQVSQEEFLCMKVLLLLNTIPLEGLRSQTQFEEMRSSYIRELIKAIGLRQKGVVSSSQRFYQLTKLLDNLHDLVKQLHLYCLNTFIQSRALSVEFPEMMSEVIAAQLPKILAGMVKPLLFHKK

Experiment [1] deals with T2, Alpha-1A adrenergic receptor (Homo sapiens, UniProt P35348).
T2 sequence (P35348 whole entry): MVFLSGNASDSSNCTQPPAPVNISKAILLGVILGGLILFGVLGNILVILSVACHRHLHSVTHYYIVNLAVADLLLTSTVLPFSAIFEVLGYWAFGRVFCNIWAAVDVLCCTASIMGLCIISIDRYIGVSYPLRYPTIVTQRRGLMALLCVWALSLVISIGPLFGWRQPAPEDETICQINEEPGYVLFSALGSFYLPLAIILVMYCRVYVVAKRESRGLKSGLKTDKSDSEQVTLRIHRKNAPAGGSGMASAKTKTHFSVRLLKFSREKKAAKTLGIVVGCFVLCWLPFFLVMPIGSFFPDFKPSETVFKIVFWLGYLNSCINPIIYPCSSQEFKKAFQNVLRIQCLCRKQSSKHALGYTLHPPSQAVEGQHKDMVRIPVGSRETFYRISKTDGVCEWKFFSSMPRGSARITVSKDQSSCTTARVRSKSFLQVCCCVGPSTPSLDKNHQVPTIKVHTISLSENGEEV
It counts as functional, cell-based.

Experiment [2] addresses cGMP-inhibited 3',5'-cyclic phosphodiesterase 3A (Homo sapiens, UniProt Q14432). It counts as functional.
The next experiment deals with T3, Estrogen receptor (Homo sapiens, UniProt P03372).
T3 sequence (P03372 whole entry): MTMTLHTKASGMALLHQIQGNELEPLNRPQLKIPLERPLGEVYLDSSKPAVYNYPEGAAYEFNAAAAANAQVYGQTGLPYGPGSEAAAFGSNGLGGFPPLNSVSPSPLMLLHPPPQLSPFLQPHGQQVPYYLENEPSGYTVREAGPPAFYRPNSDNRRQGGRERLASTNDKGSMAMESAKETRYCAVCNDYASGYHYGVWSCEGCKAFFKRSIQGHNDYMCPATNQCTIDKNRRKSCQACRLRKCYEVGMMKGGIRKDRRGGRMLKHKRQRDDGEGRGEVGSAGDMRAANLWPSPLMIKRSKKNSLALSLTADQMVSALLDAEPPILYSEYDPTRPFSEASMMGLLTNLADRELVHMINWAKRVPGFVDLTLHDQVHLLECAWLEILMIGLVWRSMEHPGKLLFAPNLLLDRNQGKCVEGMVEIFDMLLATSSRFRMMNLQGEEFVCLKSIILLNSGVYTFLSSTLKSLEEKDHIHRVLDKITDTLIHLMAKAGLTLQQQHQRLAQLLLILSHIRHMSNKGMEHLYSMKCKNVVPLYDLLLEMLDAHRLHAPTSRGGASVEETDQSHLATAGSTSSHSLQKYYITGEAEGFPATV

The target of experiment [3] is T4, Muscarinic acetylcholine receptor M2 (Homo sapiens, UniProt P08172).
T4 sequence (P08172 whole entry): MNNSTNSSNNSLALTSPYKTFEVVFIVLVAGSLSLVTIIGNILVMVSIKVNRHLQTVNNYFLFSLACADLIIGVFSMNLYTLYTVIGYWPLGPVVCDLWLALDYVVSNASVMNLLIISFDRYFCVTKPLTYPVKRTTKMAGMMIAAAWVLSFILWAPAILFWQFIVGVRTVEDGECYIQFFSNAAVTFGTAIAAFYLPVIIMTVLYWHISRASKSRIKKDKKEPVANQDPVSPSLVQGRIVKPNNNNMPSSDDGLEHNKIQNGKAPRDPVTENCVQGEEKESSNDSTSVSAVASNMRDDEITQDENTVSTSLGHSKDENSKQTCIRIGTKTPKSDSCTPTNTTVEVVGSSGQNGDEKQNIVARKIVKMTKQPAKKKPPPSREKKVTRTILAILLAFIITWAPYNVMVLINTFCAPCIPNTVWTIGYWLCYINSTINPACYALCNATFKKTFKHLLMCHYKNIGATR

The target in experiment [4] is Prostaglandin G/H synthase 1 (Homo sapiens, UniProt P23219). It counts as functional.
Chain of Prostaglandin G/H synthase 1 (P23219 whole entry): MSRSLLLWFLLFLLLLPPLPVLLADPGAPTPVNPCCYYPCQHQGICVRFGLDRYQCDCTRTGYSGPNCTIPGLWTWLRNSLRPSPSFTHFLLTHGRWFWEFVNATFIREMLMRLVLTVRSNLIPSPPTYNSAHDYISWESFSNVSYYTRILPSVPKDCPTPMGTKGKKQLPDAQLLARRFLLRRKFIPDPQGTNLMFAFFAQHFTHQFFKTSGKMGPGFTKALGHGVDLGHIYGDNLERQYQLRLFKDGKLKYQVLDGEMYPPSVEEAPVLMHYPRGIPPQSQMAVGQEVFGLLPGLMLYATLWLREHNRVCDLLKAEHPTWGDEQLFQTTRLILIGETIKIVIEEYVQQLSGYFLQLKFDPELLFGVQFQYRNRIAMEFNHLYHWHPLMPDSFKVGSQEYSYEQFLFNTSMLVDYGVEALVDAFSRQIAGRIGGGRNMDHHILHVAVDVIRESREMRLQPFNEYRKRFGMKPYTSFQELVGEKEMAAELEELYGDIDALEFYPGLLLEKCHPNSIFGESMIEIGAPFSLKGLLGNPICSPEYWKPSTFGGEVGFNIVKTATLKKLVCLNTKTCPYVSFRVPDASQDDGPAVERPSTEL
Also: assay procedure not described here.

Chain of cGMP-inhibited 3',5'-cyclic phosphodiesterase 3A (Q14432 whole entry): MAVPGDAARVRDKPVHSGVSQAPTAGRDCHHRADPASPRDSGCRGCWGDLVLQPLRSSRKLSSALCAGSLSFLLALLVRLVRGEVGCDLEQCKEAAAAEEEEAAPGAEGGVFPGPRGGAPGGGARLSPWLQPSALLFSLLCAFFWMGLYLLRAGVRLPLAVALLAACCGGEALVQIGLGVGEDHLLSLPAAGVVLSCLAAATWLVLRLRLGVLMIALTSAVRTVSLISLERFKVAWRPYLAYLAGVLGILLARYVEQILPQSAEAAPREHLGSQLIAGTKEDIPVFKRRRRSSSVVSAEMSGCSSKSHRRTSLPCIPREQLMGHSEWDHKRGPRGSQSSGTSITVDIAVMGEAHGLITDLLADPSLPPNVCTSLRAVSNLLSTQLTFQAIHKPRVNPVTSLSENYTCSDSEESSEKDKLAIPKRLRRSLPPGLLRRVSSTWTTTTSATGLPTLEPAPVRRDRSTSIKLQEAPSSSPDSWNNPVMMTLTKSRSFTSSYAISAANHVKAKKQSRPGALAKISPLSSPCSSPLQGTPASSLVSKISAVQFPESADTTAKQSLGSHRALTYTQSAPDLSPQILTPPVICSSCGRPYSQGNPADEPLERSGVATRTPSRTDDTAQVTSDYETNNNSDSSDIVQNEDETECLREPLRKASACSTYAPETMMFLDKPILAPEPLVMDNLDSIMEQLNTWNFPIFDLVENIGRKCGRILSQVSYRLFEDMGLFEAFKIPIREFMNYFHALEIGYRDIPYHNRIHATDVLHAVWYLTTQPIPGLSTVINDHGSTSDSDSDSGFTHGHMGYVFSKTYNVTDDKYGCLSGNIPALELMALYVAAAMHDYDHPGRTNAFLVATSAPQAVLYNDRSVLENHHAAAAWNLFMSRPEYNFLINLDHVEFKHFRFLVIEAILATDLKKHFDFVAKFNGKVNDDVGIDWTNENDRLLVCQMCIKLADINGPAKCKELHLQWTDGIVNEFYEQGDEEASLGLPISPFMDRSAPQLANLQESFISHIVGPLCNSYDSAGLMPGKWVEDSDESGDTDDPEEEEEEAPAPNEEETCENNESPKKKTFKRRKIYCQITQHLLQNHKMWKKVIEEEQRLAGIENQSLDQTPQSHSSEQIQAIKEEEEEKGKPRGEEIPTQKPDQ

Regarding `Nc1ccc(C(=O)O)cc1` [AMINOBENZOIC ACID], the AC50 at Progesterone receptor was greater than 30 µM; in experiment [1], greater than 30 µM; in experiment [2], greater than 30 µM; at Estrogen receptor, greater than 30 µM; in experiment [3], greater than 30 µM; in experiment [4], 4.69 µM.

`CCS(=O)(=O)N1CC(CC#N)(n2cc(-c3ncnc4[nH]ccc34)cn2)C1` [BARICITINIB]: the AC50 (on Progesterone receptor; in experiment [1]; in experiment [2]; on Estrogen receptor; in experiment [3]; in experiment [4]) was greater than 30 µM in each case.

In the case of `O=C1CN=C(c2ccccc2)c2c(sc3c2CCCC3)N1` [BENTAZEPAM], the AC50 on Progesterone receptor was 14.8 µM; in experiment [1] it was greater than 30 µM; in experiment [2], greater than 30 µM; at Estrogen receptor, greater than 30 µM; in experiment [3], greater than 30 µM; in experiment [4], greater than 30 µM.

Regarding `O=C(O)CCCN1CCC(O[C@@H](c2ccc(Cl)cc2)c2ccccn2)CC1` [BEPOTASTINE], the AC50 (on Progesterone receptor; in experiment [1]; in experiment [2]; on Estrogen receptor; in experiment [3]; in experiment [4]) was greater than 30 µM in each case.

As to `CN(Cc1cc(Br)cc(Br)c1N)C1CCCCC1` [BROMHEXINE], the AC50 (on Progesterone receptor; in experiment [1]; in experiment [2]; at Estrogen receptor; in experiment [3]; in experiment [4]) was greater than 30 µM throughout.

In the case of `CCCC[N+]1(C)[C@@H]2C[C@@H](OC(=O)[C@H](CO)c3ccccc3)C[C@H]1[C@@H]1O[C@@H]12` (stereo not given in full) [BUTYLSCOPOLAMINE], the AC50 (on Progesterone receptor; in experiment [1]; in experiment [2]; at Estrogen receptor; in experiment [4]) was greater than 30 µM each time.

On to `NCc1ccccc1CC(=O)N[C@@H]1C(=O)N2C(C(=O)O)=C(CSc3nnnn3CC(=O)O)CS[C@H]12` [CEFORANIDE], for which the AC50 (on Progesterone receptor; in experiment [1]; in experiment [2]; on Estrogen receptor; in experiment [3]; in experiment [4]) was greater than 30 µM in each case.

In the case of `O=C(c1ccc(F)c(F)c1Nc1ccc(I)cc1F)N1CC(O)([C@@H]2CCCCN2)C1` [COBIMETINIB], the AC50 at Progesterone receptor is greater than 30 µM; in experiment [1], greater than 30 µM; in experiment [2] it was greater than 30 µM; on Estrogen receptor, greater than 30 µM; in experiment [3] it was 13.8 µM; in experiment [4], greater than 30 µM.

Turning to `CN1CCN(C(c2ccccc2)c2ccccc2)CC1` [CYCLIZINE], the AC50 was greater than 30 µM on Progesterone receptor; greater than 30 µM in experiment [1]; greater than 30 µM in experiment [2]; greater than 30 µM on Estrogen receptor; 0.334 µM in experiment [3]; greater than 30 µM in experiment [4].

In the case of `NS(=O)(=O)c1cc2c(cc1Cl)NC(C1CC3C=CC1C3)NS2(=O)=O` (stereo not given) [CYCLOTHIAZIDE], the half-maximal activity concentration (AC50) (on Progesterone receptor; in experiment [1]; in experiment [2]; on Estrogen receptor; in experiment [3]; in experiment [4]) was greater than 30 µM throughout.

For the compound `Nc1nc(-n2cc(C(=O)O)c(=O)c3cc(F)c(N4CC(O)C4)c(Cl)c32)c(F)cc1F` [DELAFLOXACIN], the AC50 (on Progesterone receptor; in experiment [1]; in experiment [2]; on Estrogen receptor; in experiment [3]; in experiment [4]) was greater than 30 µM each time.

For `CN1C(=O)N(C)C2C1N(C)C(=O)N2C` (stereo not given) [MEBICAR], the concentration at half-maximal activity (AC50) (on Progesterone receptor; in experiment [2]; on Estrogen receptor; in experiment [3]; in experiment [4]) was greater than 30 µM each time.

Regarding `Nc1ccc(/N=N/c2ccccc2)c(N)n1` [PHENAZOPYRIDINE], the concentration at half-maximal activity (AC50) was greater than 30 µM on Progesterone receptor; 20.9 µM in experiment [2]; greater than 30 µM on Estrogen receptor; greater than 30 µM in experiment [3]; greater than 30 µM in experiment [4].

By AC50 is commonly meant the concentration at which the activity in the assay is half-maximal. The low end stands for greater potency, the high end for weaker potency.
